Laboratory results taken from the METLIN SMRT retention time set (Domingo-Almenara et al. 2019).

Test: gradient 5% acetonitrile 3 min, to 50% in 2 min, to 85% in 15 min, held 3 min, 100 µL/min
Settings: column: Zorbax Extend-C18 2.1 x 50 mm; eluents: water / acetonitrile, 0.1% formic acid
Summary of the method: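 Retention time was recorded from adduct peaks, which were picked computationally and each inspected manually. Pure standards ran in mixtures of ~100 molecules on HPLC coupled to a quadrupole time-of-flight mass spectrometer, in positive and negative ionization mode, through a Zorbax Extend-C18 column (2.1 × 50 mm, 1.8 μm) at 100 μL/min. Eluents were water and acetonitrile, each with 0.1% formic acid.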

RP-LC retention time [s]	Compound
1090	Cc1ccc(N2CC(c3noc(-c4cccc(N(C)C)c4)n3)CC2=O)cc1 (configuration not stated)
695	CS(=O)(=O)N1CCC(C(=O)NCCc2csc(-c3cccs3)n2)CC1
926	COc1ccc(Cl)cc1NC(=O)CN1C(=O)CC(C)Sc2ccccc21 (configuration not stated)
745	Cc1nn(C)c2c(=O)n(CC(=O)NCc3ccc(Br)cc3)ccc12
592	COc1ccc(Cc2nc(Cn3ccnc3)no2)cc1OC
527	CN(C)C[C@@H]1CN(c2ccncn2)C[C@H]1NC(=O)c1ccc2c(c1)OCO2
615	Cc1nc2cc3c(cc2n1CC(=O)NCc1ccc2c(c1)OCCCO2)OCCO3
945	CN(Cc1ccccc1)C(=O)CN1C(=O)C(C(=O)N2CCCCCC2)Sc2ccccc21 (configuration not stated)
1090	CC(C)Cn1c(=O)c(C(=O)NC2CCCCCC2)nc2cccnc21
923	CCCN(C)c1ccc2ncc(=O)n(C)c2n1
722	Cc1ccc(CNC(=O)C2CCCN(c3cnc4nccnc4c3)C2)cc1C (configuration not stated)
1210	O=C(CCC1CCCC1)Nc1nc(-c2ccc(F)cc2)cs1
851	CN1C(=O)C2(CCN(C(=O)c3ccc(Cl)cc3)C2)c2ccccc21 (configuration not stated)
791	COc1ccc(OC)c(NC(=O)CSc2cc(N3CCN(c4ccccc4OC)CC3)ncn2)c1
690	CSc1ccc(CCNC(=O)CCCN2C(=O)CCn3nc(C)cc32)cc1
803	Cc1nnc(N2CCCC(C(=O)NCCC3=CCCCC3)C2)c2nn(-c3ccccc3)c(C)c12 (configuration not stated)
603	Cn1cc(-c2cc3n(n2)CCC(=O)N3CC(=O)NCCCN2CCOCC2)c2ccccc21
588	Cc1nc(NCCNC(=O)c2cccc(C(F)(F)F)c2)cc(N2CCOCC2)n1
1120	Cc1ccc(-c2noc(Cc3nnc(-c4ccc(F)cc4)o3)n2)cc1C
1120	Cc1nc2c(sc3nc(-c4ccccc4)ccc32)c(=O)n1CC(=O)Nc1cccc(Cl)c1
938	CCOC(=O)c1noc2nc(C)nc(Nc3ccc(OC)cc3)c12
703	Cc1oc(-c2[nH]ncc2C(=O)N(C)C)cc1S(=O)(=O)Nc1cccc(Cl)c1

RP-LC retention time [s]	Compound
724	COc1cccc(NC(=O)CN2C(=O)NC3(CCCCC3)C2=O)c1
898	COc1ccc(-c2nc(C3CC(=O)N(c4ccc(F)cc4)C3)no2)c(OC)c1 (configuration not stated)
693	CSc1ccc(-c2nc3ccc(C)cn3c2Nc2ccc(Cl)cc2)cc1
643	O=C(Nc1ccc(-c2ccc(=O)[nH]n2)cc1)c1ccc(-n2cccn2)nn1
664	CCNC(=O)Cc1nnc(-c2ccc(C)cc2)o1
687	CS(=O)(=O)N(C1CCOCC1)C1CN(C(=O)c2cc(F)ccc2F)C1
708	CCOC(=O)C1=C(CN2CCC(Cc3ccccc3)CC2)NC(=O)NC1c1ccco1 (configuration not stated)
1270	CCCN1C(=O)COc2ccc(-c3noc(-c4ccc(F)c(F)c4)n3)cc21
665	Cc1nnsc1C(=O)Nc1nnc(-c2ccnn2C)o1
760	COc1ccc(-c2cn3c(CC(=O)Nc4ccccc4)csc3n2)cc1
806	CN1C(=O)c2cccnc2Sc2cc(C(=O)NCc3ccccc3Cl)ccc21
746	CCS(=O)(=O)N1CCCc2cc(C(=O)NC(C)C)ccc21
782	CCCC(=O)NC(C)c1nc(-c2ccccc2)no1 (configuration not stated)
1100	CC(C)c1noc(C2(NC(=O)c3ccc(Cl)cc3)CCCCC2)n1
847	CC(C)CNC(=O)CCc1nc2ccccc2n(CC(=O)NCc2ccccc2Br)c1=O
721	O=c1n(Cc2ccccc2)nc2c(S(=O)(=O)N3CCOCC3)cccn12
665	CCC1CCCCN1C(=O)c1cnc2nc(C)ccc2c1Nc1ccc(OC)cc1 (configuration not stated)
762	Cc1cccc(CNC2=NCCNC23CCN(S(=O)(=O)c2ccc(Cl)cc2)CC3)c1
791	Cc1ccc(F)cc1-n1cc(C(=O)O)c2ccccc2c1=O
854	Nc1ccc2c(c1Cl)C(=O)c1ccc(N)c(Cl)c1C2=O
956	Cc1sc(-c2nnc(C3CC3)o2)cc1NC(=O)Cc1ccc(F)cc1
846	O=c1ccc(N2CCCN(S(=O)(=O)c3ccc(F)cc3)CC2)nn1-c1ccccc1

RP-LC retention time [s]	Compound
735	O=C(NCc1ccc(N2CCOCC2)cc1)c1cccc2c1CCN2C(=O)C1CC1
704	CN(C)c1ccc(-c2nc3ncc(Cl)c(N4CCN(CC(=O)Nc5nccs5)CC4)c3[nH]2)cc1
892	CN1C(=O)Cc2cc(C(=O)NC3CCN(Cc4ccccc4)CC3)ccc21
629	CC(=O)N1CCc2cc(N3CC(C(=O)Nc4ccc(N5CCOCC5)cc4)CC3=O)ccc21 (configuration not stated)
684	CC1CCN(C(=O)c2nc(-c3ccnc(N4CCCC4)c3)no2)CC1
900	Cc1cc(C)cc(NC(=O)C2CCN(S(C)(=O)=O)c3cc(C)ccc3O2)c1 (configuration not stated)
808	Cn1c(SCC(=O)c2ccccc2OC(F)F)nc2ccccc21
949	O=C(NCC1CCN(C(=O)Oc2ccccc2)CC1)C1c2ccccc2Oc2ccccc21
772	COc1cccc(CNC(=O)CN2CCN(Cc3ccc(F)cc3)C2=O)c1OC
905	COCCN1C(=O)c2ccccc2C(C(=O)NCc2ccccc2Cl)C12CCCC2 (configuration not stated)
1230	CCOc1nc2ccccc2nc1N1CCCC(C(=O)Nc2cccc3ccccc23)C1 (configuration not stated)
1010	Cc1cccc(-c2noc(C3CCCN3C(=O)Nc3ccc(F)cc3)n2)c1 (configuration not stated)
816	CS(=O)(=O)N1CCCC(C(=O)NC2CC2)CCNC(=O)CC1 (configuration not stated)
840	COc1ccc(Cl)cc1NC(=O)COc1nc(C)nc2ccccc12
967	O=C(NCc1ccco1)N1CCN(c2nc3ccccc3n(Cc3ccccc3)c2=O)CC1
781	CC(=O)Nc1cc2c(cc1Sc1ccccc1Cl)n(C)c(=O)n2C
744	CCn1cc(CN2CCC(C(=O)NCc3cccc(Cl)c3)CC2)c2cc(OC)ccc21
625	CCN1CCc2nc(-c3ccc(F)cc3)n(CC(=O)N3CCCc4ccccc43)c(=O)c2C1
678	CN1CCn2cc(S(=O)(=O)Nc3ccc(F)cc3)cc2C1=O
854	CC(C)(C)c1ccc(S(=O)(=O)N2CCC3(CC2)NCCN=C3NCc2ccccc2)cc1
967	Cc1cc2nn(CC(=O)Nc3ccccc3F)c(=O)n2c(Nc2ccc(F)cc2)n1

Compound	RP-LC retention time [s]
O=C(C1CC1)N1[C@H]2CC[C@@H]1c1cnc(-c3ccccc3)nc1C2	817
NC(=O)[C@H](Cc1ccccc1)NC(=O)[C@H](Cc1c[nH]c2ccccc12)NC(=O)[C@@H]1CCCN1C(=O)[C@@H](N)Cc1ccc(O)cc1	680
